Values of other authors in patent USRE39480E1, “Chromium/biotin treatment of type II diabetes” (Nutrition 21, Inc., priority 1997, dated 2007).

Columns and labels:
[1] = system: pre-diabetic Otsuka Long-Evans Tokushima Fatty rats; conditions: high-dose oral or parenteral biotin
[2] = system: rats made diabetic by injection with streptozotocin; conditions: high-dose oral or parenteral biotin
[3] = system: Type I diabetics; conditions: daily oral dose of 16 mg; insulin injections temporarily discontinued
[4] = system: poorly-controlled type II diabetics; conditions: 3 mg biotin three times per day
[5] = oral biotin intakes of up to 200 mg daily
[6] = system: diabetic KK mice; conditions: high-dose oral or parenteral biotin
[7] = system: individuals with Type II diabetes; conditions: 1,000 μg chromium per day as chromic tripicolinate
[8] = system: Type II diabetes; conditions: doses which provide between 50 and 500 μg of chromium

O=C(O)CCCC[C@@H]1SC[C@@H]2NC(=O)N[C@@H]21 [biotin]
oral glucose tolerance [1]: improve oral glucose tolerance
oral glucose tolerance [2]: improve oral glucose tolerance
fasting plasma glucose levels [3]: lowered fasting plasma glucose levels
fasting insulin levels [4]: did not decline
glucose levels [4]: sharp decline
pancreatic beta cell function [4]: improved pancreatic beta cell function
side effects or toxicities [5]: no side effects or toxicities were noted
oral glucose tolerance [6]: improve oral glucose tolerance

chromic tripicolinate
decrease in glycosylated hemoglobin [7]: 30%
change in glycosylated hemoglobin [8]: small decrease
glycosylated hemoglobin value obtained after chromic tripicolinate treatment ([8]; still within the diabetic range): 10.4%
